Test results as given in US20260008783A1, “MODULATORS OF FSHR AND USES THEREOF” (Celmatix Inc., priority 2022, published 2026).
Values joined by “and” are separate entries in the source; they are usually repeats but may differ in a detail not shown here. Identical values can stand only once.

These compounds were tested against T1, Follicle Stimulating Hormone Receptor (FSHR) (Homo sapiens, UniProt P23945) (assay: HTRF cAMP agonist assay, FSHR, transiently transfected CHO-K1 cells). Conditions: CHO-K1 cells transiently expressing human FSHR, read-out: IC50 FSHR LANCE CAMP.
T1 construct: HA (N); expressed in transfected cells; host or cells: CHO-K1, transient transfection, pHM6 vector (CMV promoter)
T1 sequence (P23945 18-695): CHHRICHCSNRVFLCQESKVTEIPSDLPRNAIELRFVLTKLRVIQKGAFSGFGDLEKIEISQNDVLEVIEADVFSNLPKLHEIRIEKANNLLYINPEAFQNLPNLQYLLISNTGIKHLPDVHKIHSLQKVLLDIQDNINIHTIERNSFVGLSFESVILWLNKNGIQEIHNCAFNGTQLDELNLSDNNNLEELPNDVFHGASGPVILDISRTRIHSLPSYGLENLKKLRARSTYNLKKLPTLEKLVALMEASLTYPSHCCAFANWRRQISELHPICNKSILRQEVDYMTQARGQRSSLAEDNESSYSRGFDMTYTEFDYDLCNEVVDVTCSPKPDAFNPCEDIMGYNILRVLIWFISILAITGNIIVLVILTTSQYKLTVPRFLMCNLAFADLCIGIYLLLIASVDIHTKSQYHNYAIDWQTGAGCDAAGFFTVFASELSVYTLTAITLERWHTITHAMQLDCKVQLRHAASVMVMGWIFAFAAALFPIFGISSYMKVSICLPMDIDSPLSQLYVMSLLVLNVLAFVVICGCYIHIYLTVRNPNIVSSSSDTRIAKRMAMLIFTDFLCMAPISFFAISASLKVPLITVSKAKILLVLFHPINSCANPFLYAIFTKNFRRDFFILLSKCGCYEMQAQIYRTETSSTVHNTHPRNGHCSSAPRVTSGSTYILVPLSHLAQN
Type: cell-based
Compound `COc1cc2c(cc1-c1cncc(C(N)=O)c1)-c1c(c(C(=O)N3CCN(CC(=O)O)CC3(C)C)nn1-c1cc(Cl)cc(Cl)c1)CC2` [Compound 8-64] has an IC50 of 3.4 µM.
`COc1cc2c(cc1-c1cncc(C(N)=O)c1)-c1c(c(C(=O)N3CCCC3)nn1-c1cc(Cl)cc(Cl)c1)CC2` [Compound 8-37] showed an IC50 of 0.0484 µM.
`COc1cc2c(cc1-c1cncc(C(N)=O)c1)-c1c(c(C(=O)N3CCNC(=O)C3(C)C)nn1-c1ccncn1)CC2` [Compound 15-05, 5-(3-(2,2-dimethyl-3-oxopiperazine-1-carbonyl)-7-methoxy-1-(pyrimidin-4-yl)-4,5-dihydro-1H-benzo[g]indazol-8-yl)nicotinamide] showed an IC50 of 0.363 µM.
`COc1cc2c(cc1-c1cncc(C(N)=O)c1)-c1c(c(C(=O)N3COCC3(C)C)nn1-c1cc(Cl)cc(Cl)c1)CCO2` [Compound 12-11] gave an IC50 of 0.0266 µM.
In the case of `CCN(C(=O)c1nn(-c2cc(Cl)cc(Cl)c2)c2c1CCc1cc(OC)c(-c3cncc(C(N)=O)c3)cc1-2)C(C)(C)C` [Compound 8-41], the IC50 is reported as 0.0018 µM and 0.00246 µM.
In the case of `COc1cc2c(cc1-c1cncc(C(N)=O)c1)-c1c(c(C(=O)N3CCC(=O)C3(C)C)nn1-c1cc(Cl)cc(Cl)c1)CC2` [Compound 8-90], the IC50 is reported as 0.00669 µM.
`COc1cc2c(cc1-c1cncc(C(N)=O)c1)-c1c(c(C(=O)N(C)CC(F)(F)F)nn1-c1cc(Cl)cc(Cl)c1)CC2` [Compound 8-55] gave an IC50 of 0.00656 µM.
Compound `COc1cc2c(cc1-c1cncc(C(N)=O)c1)-c1[nH]nc(C(=O)N3CCOCC3(C)C)c1CC2` [Compound 9-01] has an IC50 of 1.79 µM.
`COc1cc2c(cc1-c1cncc(C(N)=O)c1)-c1c(c(C(=O)N3COCC3(C)C)nn1-c1cc(Cl)cc(Cl)c1)OC2` [Compound 12-04] showed an IC50 of 0.00509 µM.
`COc1cc2c(cc1-c1ccn(C)n1)-c1c(c(C(=O)N3CCOCC3(C)C)nn1-c1cc(Cl)cc(Cl)c1)OC2` [Compound 2-05, [1-(3,5-dichlorophenyl)-7-methoxy-8-(1-methylpyrazol-3-yl)-5H-isochromeno[4,3-c]pyrazol-3-yl]-(3,3-dimethylmorpholin-4-yl)methanone] was tested, and the IC50 was 0.638 µM.
`COc1cc2oc3c(C(=O)N4CCOCC4(C)C)n(-c4ccsc4)nc3c2cc1-c1cncc(C(N)=O)c1` [Compound 4-03A] gave an IC50 of 1.86 µM.
`COc1cc(Cl)cc(-n2ncc3c2-c2cc(-c4cncc(C(N)=O)c4)c(OC)cc2CC3)c1` [Compound 9-24] was tested, and the IC50 was 15.5 µM.
`COc1cc2c(cc1-c1cncc(C(N)=O)c1)-c1c(c(C(=O)N3CCN(CCN)CC3(C)C)nn1-c1cc(Cl)cc(Cl)c1)CC2` [Compound 8-66] showed an IC50 of 2.79 µM.
In the case of `COc1cc2c(cc1-c1cncc(C(N)=O)c1)-c1c(c(C(=O)N3CCC(=O)NCC3(C)C)nn1-c1cc(Cl)cc(Cl)c1)CC2` [Compound 8-04A, 5-[1-(3,5-dichlorophenyl)-3-(2,2-dimethyl-5-oxo-1,4-diazepane-1-carbonyl)-7-methoxy-4,5-dihydrobenzo[g]indazol-8-yl]pyridine-3-carboxamide], the IC50 is reported as 0.00979 µM.
Work on `COc1cc2c(cc1-c1cncc(C(N)=O)c1)-c1c(c(C(=O)N3CCOCC3(C)C)nn1-c1ncccn1)CC2` [Compound 10-08] yielded an IC50 of 0.4 µM.
For `COc1cc2c(cc1-c1cncc(C(N)=O)c1)-c1c(c(C(=O)N3CCOCC3(C)C)nn1-c1cccnn1)CC2` [Compound 10-07], the IC50 was 0.0225 µM.
In the case of `COc1cc2c(cc1-c1ccn(C)n1)-c1c(c(C(=O)N(C)C(C)(C)C)nn1-c1cc(Cl)cc(Cl)c1)CC2` [Compound 6-04, N-tert-butyl-1-(3,5-dichlorophenyl)-7-methoxy-N-methyl-8-(1-methylpyrazol-3-yl)-4,5-dihydrobenzo[g]indazole-3-carboxamide], the IC50 is reported as 0.18 µM.
In the case of `COc1cc2c(cc1-c1cncc(C(N)=O)c1)-c1c(c(C(=O)N3CCN(CCO)C(=O)C3(C)C)nn1-c1cc(Cl)cc(Cl)c1)CC2` [Compound 8-70], the IC50 is reported as 0.14 µM.
With `COc1cc2c(cc1-c1cccnc1)-c1c(c(C(=O)N3CCNC(=O)C3(C)C)nn1-c1ccccn1)CC2` [Compound 15-02] the IC50 was 0.477 µM.
`COc1cc2oc3c(C(=O)N(C)C(C)(C)C)nn(-c4ccsc4)c3c2cc1-c1cncc(C(N)=O)c1` [Compound 4-04] showed an IC50 of 0.586 µM.
For `COc1cc2c(cc1-c1cncc(C(N)=O)c1)-c1c(c(C(=O)N(C)C(C)(C)C)nn1-c1cc(Cl)cc(Cl)c1)OC2` [Compound 2-02], the IC50 was 0.00198 µM.
With `COc1cc2c(cc1-c1cccnc1)-c1c(c(C(=O)N3CCOCC3(C)C)nn1-c1cc(F)cc(F)c1)CO2` [Compound 15-08] the IC50 was 0.00732 µM.
`COc1cc2c(cc1-c1cncc(C(N)=O)c1)-c1c(c(C(=O)N3CCOCC3(C)C)nn1-c1ccsc1)C2` [Compound 5-03, 5-[3-(3,3-dimethylmorpholine-4-carbonyl)-6-methoxy-1-(3-thienyl)-4H-indeno[1,2-c]pyrazol-7-yl]pyridine-3-carboxamide] gave an IC50 of 0.00464 µM.
In the case of `COc1cc2c(cc1-c1cncc(C(N)=O)c1)-c1c(c(C(=O)N(C)C(C)(C)C)nn1-c1cc(Cl)cc(Cl)c1)CC2` [Compound 6-02, N-tert-butyl-8-(5-carbamoyl-3-pyridyl)-1-(3,5-dichlorophenyl)-7-methoxy-N-methyl-4,5-dihydrobenzo[g]indazole-3-carboxamide], the IC50 is reported as 0.00853 µM.
For `COc1cc2c(cc1-c1cncc(C(N)=O)c1)-c1c(c(C(=O)N3CCN(C#N)CC3C)nn1-c1cc(Cl)cc(Cl)c1)CC2` (centres unmarked) [Compound 8-09, 5-[3-(4-cyano-2-methyl-piperazine-1-carbonyl)-1-(3,5-dichlorophenyl)-7-methoxy-4,5-dihydrobenzo[g]indazol-8-yl]pyridine-3-carboxamide], the IC50 was 0.00444 µM.
Compound `COc1cc2c(cc1-c1cncc(C(N)=O)c1)-c1c(c(C(=O)N3CCOCC3(C)C)nn1-c1cccnc1)CC2` [Compound 10-02] has an IC50 of 0.0401 µM.
With `COc1cc2c(cc1-c1cncc(C(N)=O)c1)-c1c(c(C(=O)N3C[C@@H]4C[C@H]3CO4)nn1-c1cc(Cl)cc(Cl)c1)CC2` [Compound 8-29] the IC50 was 0.0273 µM.
With `COc1cc2c(cc1-c1cncc(C(N)=O)c1)-c1c(c(C(=O)N3CCOCC3(C)C)nn1-c1cncnc1)CC2` [Compound 10-09] the IC50 was 0.165 µM.
Compound `COc1cc2c(cc1OC(C)C)-c1c(c(C(=O)N3CCOCC3(C)C)nn1-c1cc(Cl)cc(Cl)c1)CC2` [Compound 9-08] has an IC50 of 0.0162 µM.
For `CC[C@H]1COCCN1C(=O)c1nn(-c2cc(Cl)cc(Cl)c2)c2c1CCc1cc(OC)c(-c3cncc(C(N)=O)c3)cc1-2` [Compound 8-44], the IC50 was 0.00204 µM.
`O=C(c1nn(-c2ccccn2)c2c1CCc1ccc(-c3cccnc3)cc1-2)N1CCNC(=O)C12CC2` [Compound 8-81] showed an IC50 of 5.38 µM.
`COc1cc2c(cc1-c1ccn(C)n1)-c1c(c(C(=O)N3CCOCC3(C)C)nn1-c1cc(Cl)cc(Cl)c1)C2` [Compound 5-05, [1-(3,5-dichlorophenyl)-6-methoxy-7-(1-methylpyrazol-3-yl)-4H-indeno[1,2-c]pyrazol-3-yl]-(3,3-dimethylmorpholin-4-yl)methanone] was tested, and the IC50 was 0.559 µM.
